{"source": "patent US20220380286A1", "about": "“METHOD FOR PRODUCING 2,2'-BIS(CARBOXYMETHOXY)-1,1'-BINAPHTHYL” (HONSHU CHEMICAL INDUSTRY CO., LTD., priority 2019, published 2022)", "test": "solubility in water (concentration of saturated solution)", "assay_type": "physicochemical", "details": "30° C., crystals filtered in Example 2", "experimental": "After two hours, the reaction solution was gradually cooled and filtered at 25° C. (corresponding to the separation step of the present invention) to obtain crystals. […] The crystals were washed with water (18 g) and then washed with methyl isobutyl ketone (18 g) to obtain 109.0 g of a sodium salt of 2,2′-bis(carboxymethoxy)-1,1′-binaphthyl. For the removal of a mother liquor during the filtration, centrifugal force (small centrifuge H-122, manufactured by KOKUSAN Co., Ltd.) was utilized.", "data": [{"smiles": "O=C([O-])COc1ccc2ccccc2c1-c1c(OCC(=O)[O-])ccc2ccccc12.[Na+].[Na+]", "note": "[sodium salt of 2,2′-bis(carboxymethoxy)-1,1′-binaphthyl]", "values": [{"measurement": "concentration of saturated solution in water", "result": 3.8, "unit": "wt %"}]}]}
